Data set [1] concerns skin. Nature of the data set: skin cell-renewal (exfoliation) rate after topical application. It is filed as in vivo, human. The method, then: (§1) Skin irritation, expressed as a “Sting” percentage, was also determined. The increase in skin cell renewal rate and irritation level was measured substantially according to the procedure described in Soap/Cosmetics/Chemical Specialties for September 1993 at pp. 54-58 and 76.

Data set [2] concerns skin. The experiment in a line: skin irritation level (Sting %) after topical application. It is filed as in vivo, human. The method, then: as §1
For data set [3] the following is noted: cited from earlier work.
Setting [4] is: 0.5 wt % active, composition pH 5.65.
The mark [5] stands for this setting: 1.0 wt % active, composition pH 7.21.

For `CC(O)C(=O)O` (centres unmarked) [Lactic Acid, reference compound], the “Cell-Renewal Rate %” value in the data set with skin [1] (5 wt % active, composition pH 3) is reported as 31.7%.
In the case of `Cc1c(C)c2c(c(C)c1OP(=O)(O)O)CC[C@@](C)(CCC[C@H](C)CCC[C@H](C)CCCC(C)C)O2` [VEP, Sodium Vitamin E Phosphate], the “Cell-Renewal Rate %” value in the data set on skin [1] (setting [4]) came to 15.2%; in the data set with skin [1] (setting [5]), 16.6%. Moreover, the “Irritation Level (Sting %)” value is reported as 17.3% with skin [2] (setting [4]) and 10.7% in the data set with skin [2] (setting [5]). In addition, in the data set on skin [2] (at pH 7.21, relative to Lactic Acid), the “irritation to the skin relative to Lactic Acid” value is on record as “about one-twentieth”. The “times less irritating to the skin than Lactic Acid” value with skin [2] (relative to Lactic Acid 5 wt %, pH 3) is listed as “at least 4.5 times”. Also, the solubility in water result in data set [3] is on record as “soluble in water”.
